From patent US11666600B2, “Methods for culturing and/or differentiating hematopoietic stem cells into progenitors and uses thereof” (HEMA-QUEBEC, priority 2015, dated 2023)

Legend:
[1] = test system: Human CB CD34+-enriched cells; test: Culture of CB CD34+-enriched hematopoietic stem cells in conditions favoring self-renewal; assay type: cell-based; settings: for Percentage of phenotype CD34+ / Percentage of phenotype CD34+/CD38− / Percentage of phenotype CD34+/CD38−/CD45RA− / Percentage of phenotype CD34+/CD45RA− / Percentage of phenotype CD38− / Percentage of phenotype CD45RA−: 14 days
Description: (§1) Human cord blood (CB) was collected after obtaining written informed consent from donors, following our institutional Research Ethics Committee guidelines. Mononuclear cells (MNCs) were first separated over a Ficoll-Hypaque™ density gradient (GE Healthcare), then cryopreserved at −180° C. in Cryostor CS10™ medium ([…] Technologies). Thawed MNCs from six to eight CB were pooled before CD34 isolation. CB CD34+ cells were enriched by positive selection using the EasySep™ CD34 enrichment kit, according to the manufacturer's instructions ([…] Technologies).
Cultures were maintained in a humidified atmosphere with 5% CO2 at 37° C. or 39° C., as indicated in the Examples. Cells were diluted at 500 000 cells/mL with fresh medium every 3 to 4 days.
(§2) Cellular counts and viability were determined by adding Solution 18 (Acridine Orange and DAPI solution, ChemomMetec) and using NucleoCounter™ NC-250 for detection (ChemomMetec).
For cells expanded in conditions favoring self-renewal, surface markers were detected using the following antibodies: CD34-PE, CD45RA-FITC, and CD38-BV421. All antibodies were purchased from BD Biosciences, except for CD34-PE which was purchased from Immunotech. Labeling of aldehyde dehydrogenase (ALDH)-positive cells was performed using the ALDEFLUOR™ Kit ([…] Technologies), according to the manufacturer's instructions. 7AAD was used as a viability dye. All samples were analyzed on a FACS-Cy Flow ML system (Sysmex), and raw data were analyzed with FCS Express 5 Flow Research Edition software from at least 15 000 viable cell events acquired for each sample.
(§3) Cellular counts and viability were determined as described in Example 6.5.

[2] = test system: Human CB CD34+-enriched cells; test: Culture of CB CD34+-enriched cells in erythroid differentiation medium; assay type: cell-based; settings: 14 days
Description: as §1
Human CB CD34+-enriched cells (purity≥90%) were seeded in 24-well plates at 100 000 cells/mL in expansion medium consisting of Eave's basal medium (Iscove's modified Dulbecco's medium (IMDM), 20% BIT ([…] bovine serum albumin, 10 μg/mL bovine pancreatic insulin, 200 μg/mL human transferrin; […] Technologies), 0.1 mg/mL low-density lipoprotein ([…] Technologies), 50 μM 2-mercaptoethanol) supplemented with 20 ng/mL SCF (Peprotech) and 2 U/mL erythropoietin (EPO; Feldan Therapeutics). Cultures were maintained in a humidified atmosphere with 5% CO2 at 37° C. or 39° C., as indicated in the Examples. Cells were diluted at 300 000 cells/mL with fresh medium every 3 to 4 days.
as §2
For cells expanded in conditions favoring differentiation towards the erythroid lineage, surface markers were detected using the following antibodies: CD34-FITC, CD71-APC and CD235-PE. All antibodies were purchased from BD Biosciences, except for CD34-FITC which was purchased from Immunotech. 7AAD was used as a viability dye. All samples were analyzed on an Accuri™ C6 flow cytometer (BD Biosciences), and raw data were analyzed with FCS Express 5 Flow Research Edition software from at least 15 000 viable cell events acquired for each sample.
as §3

[3] = 37° C. + PIC 35 nM, ACF + CC110
[4] = 37° C. + PIC 35 nM, ACF + CC110 (Table 5)
[5] = 37° C. + PIC 35 nM, ACF + HM (Table 5)
[6] = 37° C. + PIC 35 nM, SFEM + CC110
[7] = 37° C. + PIC 35 nM, SFEM II + CC110
[8] = 37° C. + PIC 35 nM, SFEM II + HM
[9] = 39° C. + PIC 35 nM, ACF + CC110
[10] = 39° C. + PIC 35 nM, ACF + CC110 (Table 5)
[11] = 39° C. + PIC 35 nM, ACF + HM (Table 5)
[12] = 39° C. + PIC 35 nM, SFEM + CC110
[13] = 39° C. + PIC 35 nM, SFEM II + CC110
[14] = 39° C. + PIC 35 nM, SFEM II + HM

Structure (SMILES): Cl.Cn1nnc(-c2ccc3c(c2)[nH]c2nc(Cc4ccccc4)nc(N[C@H]4CC[C@H](N)CC4)c23)n1 [PIC, (1r,4r)-N1-(2-benzyl-7-(2-methyl-2H-tetrazol-5-yl)-9H-pyrimido[4,5-b]indol-4-yl)cyclohexane-1,4-diamine hydrochloride]
- combined use of mild hyperthermia and PIC on expansion of CD34+/ALDH^Bright cells ([1]; 39° C. + PIC 35 nM, 21 days, ACF + HM, FIG. 29): synergistic expansion
- Percentage of phenotype CD34+ [1, 3]: 48.9%
- Percentage of phenotype CD34+/CD38− [1, 3]: 30.3%
- Percentage of phenotype CD34+/CD38−/CD45RA− [1, 3]: 10%
- Percentage of phenotype CD34+/CD45RA− [1, 3]: 16.36%
- Percentage of phenotype CD38− [1, 3]: 14.8%
- Percentage of phenotype CD45RA− [1, 3]: 59.2%
- Percentage of phenotype CD34+ [1, 4]: 50.98%
- Percentage of phenotype CD34+/CD45RA− [1, 4]: 11.83%
- Percentage of phenotype CD45RA− [1, 4]: 76.09%
- Percentage of phenotype CD34+ ([1]; 37° C. + PIC 35 nM, ACF + HM): 51.5%
- Percentage of phenotype CD34+/CD38− ([1]; 37° C. + PIC 35 nM, ACF + HM): 32.4%
- Percentage of phenotype CD34+/CD38−/CD45RA− ([1]; 37° C. + PIC 35 nM, ACF + HM): 14.7%
- Percentage of phenotype CD34+/CD45RA− ([1]; 37° C. + PIC 35 nM, ACF + HM): 22.4%
- Percentage of phenotype CD38− ([1]; 37° C. + PIC 35 nM, ACF + HM): 12.05%
- Percentage of phenotype CD45RA− ([1]; 37° C. + PIC 35 nM, ACF + HM): 53.4%
- Percentage of phenotype CD34+ [1, 5]: 44.62%
- Percentage of phenotype CD34+/CD45RA− [1, 5]: 7.67%
- Percentage of phenotype CD45RA− [1, 5]: 77.44%
- Percentage of phenotype CD34+ [1, 6]: 42.68%
- Percentage of phenotype CD34+/CD45RA− [1, 6]: 6.96%
- Percentage of phenotype CD45RA− [1, 6]: 78.72%
- Percentage of phenotype CD34+ ([1]; 37° C. + PIC 35 nM, SFEM + HM): 37.4%
- Percentage of phenotype CD34+/CD45RA− ([1]; 37° C. + PIC 35 nM, SFEM + HM): 6.66%
- Percentage of phenotype CD45RA− ([1]; 37° C. + PIC 35 nM, SFEM + HM): 75.74%
- Percentage of phenotype CD34+ [1, 7]: 33.38%
- Percentage of phenotype CD34+/CD45RA− [1, 7]: 6.09%
- Percentage of phenotype CD45RA− [1, 7]: 77.73%
- Percentage of phenotype CD34+ [1, 8]: 30.82%
- Percentage of phenotype CD34+/CD45RA− [1, 8]: 6.11%
- Percentage of phenotype CD45RA− [1, 8]: 77.27%
- Percentage of phenotype CD34+ [1, 9]: 43.7%
- Percentage of phenotype CD34+/CD38− [1, 9]: 24.2%
- Percentage of phenotype CD34+/CD38−/CD45RA− [1, 9]: 14.1%
- Percentage of phenotype CD34+/CD45RA− [1, 9]: 23.05%
- Percentage of phenotype CD38− [1, 9]: 14.45%
- Percentage of phenotype CD45RA− [1, 9]: 40.85%
- Percentage of phenotype CD34+ [1, 10]: 43.73%
- Percentage of phenotype CD34+/CD45RA− [1, 10]: 18.73%
- Percentage of phenotype CD45RA− [1, 10]: 59.72%
- Percentage of phenotype CD34+ ([1]; 39° C. + PIC 35 nM, ACF + HM): 40.95%
- Percentage of phenotype CD34+/CD38− ([1]; 39° C. + PIC 35 nM, ACF + HM): 22.9%
- Percentage of phenotype CD34+/CD38−/CD45RA− ([1]; 39° C. + PIC 35 nM, ACF + HM): 15.7%
- Percentage of phenotype CD34+/CD45RA− ([1]; 39° C. + PIC 35 nM, ACF + HM): 24.8%
- Percentage of phenotype CD38− ([1]; 39° C. + PIC 35 nM, ACF + HM): 12%
- Percentage of phenotype CD45RA− ([1]; 39° C. + PIC 35 nM, ACF + HM): 35.2%
- Percentage of phenotype CD34+ [1, 11]: 44.82%
- Percentage of phenotype CD34+/CD45RA− [1, 11]: 17.68%
- Percentage of phenotype CD45RA− [1, 11]: 59.67%
- Percentage of phenotype CD34+ [1, 12]: 45.36%
- Percentage of phenotype CD34+/CD45RA− [1, 12]: 12.23%
- Percentage of phenotype CD45RA− [1, 12]: 70.13%
- Percentage of phenotype CD34+ ([1]; 39° C. + PIC 35 nM, SFEM + HM): 41.95%
- Percentage of phenotype CD34+/CD45RA− ([1]; 39° C. + PIC 35 nM, SFEM + HM): 12.39%
- Percentage of phenotype CD45RA− ([1]; 39° C. + PIC 35 nM, SFEM + HM): 69.88%
- Percentage of phenotype CD34+ [1, 13]: 37.9%
- Percentage of phenotype CD34+/CD45RA− [1, 13]: 15.03%
- Percentage of phenotype CD45RA− [1, 13]: 63.9%
- Percentage of phenotype CD34+ [1, 14]: 37.56%
- Percentage of phenotype CD34+/CD45RA− [1, 14]: 15.27%
- Percentage of phenotype CD45RA− [1, 14]: 63.45%
- mild hyperthermia and PIC on expansion of CB CD34+ cells ([2]; 39° C. + PIC 35 nM, erythroid differentiation medium, FIG. 12): additive effect
- mild hyperthermia and PIC on expansion of CB CD34+/CD71+ cells (erythroid progenitors) ([2]; 39° C. + PIC 35 nM, erythroid differentiation medium, FIG. 13): additive effect
- effect of addition of PIC on expansion of CD71+ erythroid precursors ([2]; PIC 35 nM, 37° C. and 39° C., FIG. 10): decrease
- effect of addition of PIC on total cell expansion ([2]; PIC 35 nM, 37° C. and 39° C., FIG. 11): decrease
